Data on twelve molecules can be found in patent US7511144B2, “Reverse hydroxamic acid derivatives” (Kaken Pharmaceutical Co., Ltd., priority 2001, dated 2009).

Read-outs that look alike come from different tables or passages of the source.

What all share (assay type): biochemical
Experiment [1] deals with T1, Human MMP14 (Homo sapiens, UniProt P50281).
T1 construct: purchased Biogenesis or Calbiochem 5980-1461 or 475935
Put plainly: MMP14 inhibition experiment. Conditions: concentration required for 50% inhibition of enzyme activity; read-out: IC50 value MMP-14. An outline of the steps:
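Fluorescence assay: substrate Dnp-Pro-Cha-Gly-Cys(Me)-His-Ala-Lys(Nma)-NH2 (20 μM before equal-volume mixing) incubated at 37° C for 5 hours with 4 ng human MMP14.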

The target in experiment [2] is T2, Human MMP1 (Homo sapiens, UniProt P03956).
T2 construct: purchased Calbiochem 444208
T2 sequence (P03956 100-469): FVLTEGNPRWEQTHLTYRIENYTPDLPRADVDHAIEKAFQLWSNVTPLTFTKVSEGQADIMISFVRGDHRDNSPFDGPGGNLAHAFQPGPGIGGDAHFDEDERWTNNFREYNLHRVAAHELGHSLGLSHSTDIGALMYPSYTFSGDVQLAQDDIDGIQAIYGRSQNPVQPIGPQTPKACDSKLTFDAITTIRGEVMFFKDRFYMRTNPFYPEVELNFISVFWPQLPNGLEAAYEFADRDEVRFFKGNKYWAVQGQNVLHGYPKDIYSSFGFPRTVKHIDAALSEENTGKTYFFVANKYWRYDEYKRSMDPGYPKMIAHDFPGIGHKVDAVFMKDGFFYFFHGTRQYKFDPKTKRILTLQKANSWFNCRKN
The experiment can be described thus: MMP1 inhibition experiment. Conditions: read-out: IC50 value MMP-1.
Method: This enzyme solution in amount of 10 μL was diluted to 90 μL with the assay buffer A, which was added to 90 μL of 20 μM fluorescent substrate (Dnp-Pro-Cha(β-cyclohexylalanyl)-Gly-Cys(Me)-His-Ala-Lys(Nma)-NH2) prepared in the assay buffer B, followed by reaction for 5 hours at 37° C.

The target in experiment [3] is T3, Human MMP8 (Homo sapiens, UniProt P22894).
T3 construct: purchased Calbiochem 444229
T3 sequence (P22894 101-467): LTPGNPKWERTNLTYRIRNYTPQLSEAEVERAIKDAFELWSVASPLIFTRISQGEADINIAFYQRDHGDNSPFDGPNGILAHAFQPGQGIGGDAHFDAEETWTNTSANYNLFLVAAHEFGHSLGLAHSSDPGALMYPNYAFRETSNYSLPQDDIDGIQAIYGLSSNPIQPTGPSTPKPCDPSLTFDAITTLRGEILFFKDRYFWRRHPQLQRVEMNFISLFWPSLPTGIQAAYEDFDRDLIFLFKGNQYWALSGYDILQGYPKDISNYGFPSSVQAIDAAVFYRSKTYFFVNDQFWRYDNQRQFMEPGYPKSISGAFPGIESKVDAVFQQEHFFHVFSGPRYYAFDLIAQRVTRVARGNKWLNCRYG
Put plainly: MMP8 inhibition experiment. The following applies: concentration required for 50% inhibition of enzyme activity; read-out: IC50 value MMP-8. How it is done:
MMP inhibition experiment may be carried out using a fluorescent synthetic substrate according to, for example, the methods of Bickett et al. (D. Mark Bickett et al., Anal. Biochem., 1993, 212, 58-64) and Nagase et al. (H. Nagase et al., J. Biol. Chem., 1994, 269, 20952-20957). The methods of inhibition experiments carried out for various MMPs are described below.
Human MMP8 (Calbiochem #444229) in amount of 90 μL (30 ng) was activated by mixing with 10 μL of 10 mM APMA, followed by reaction for 1 hour at 37° C. This enzyme solution in amount of 10 μL was diluted to 90 μL with the assay buffer A, which was added to 90 μL of […] fluorescent substrate (MOCAc-Pro-Leu-Gly-Leu-A2pr(Dnp)-Ala-Arg-NH2, Peptide Institute, Inc., #3163-v) prepared in the assay buffer B, followed by reaction for 5 hours at 37° C.

The target in experiment [4] is T4, Human MMP17 (Homo sapiens, UniProt Q9ULZ9).
T4 construct: purchased Calbiochem 475940
T4 sequence (Q9ULZ9 126-300 limits assumed): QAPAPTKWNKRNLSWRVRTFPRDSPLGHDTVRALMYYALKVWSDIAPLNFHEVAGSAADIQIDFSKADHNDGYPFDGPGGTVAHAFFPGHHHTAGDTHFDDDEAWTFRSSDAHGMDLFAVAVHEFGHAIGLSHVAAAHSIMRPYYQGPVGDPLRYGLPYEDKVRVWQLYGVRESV
The experiment can be described thus: MMP17 inhibition test. The following applies: concentration required for 50% inhibition of enzyme activity; read-out: IC50 value MMP-17.

Experiment [5] deals with T5, Human MMP13 (Homo sapiens, UniProt P45452).
T5 construct: purchased Chemicon CC068
The experiment can be described thus: MMP13 inhibition experiment. The following applies: concentration required for 50% inhibition of enzyme activity; read-out: IC50 value MMP-13.
Method: Human MMP13 (Chemicon #CC068) in amount of 90 μL (200 ng) was activated by mixing with 10 μL of 10 mM APMA, followed by reaction for 1 hour at 37° C. This enzyme solution in amount of 0.6 μL was diluted to 90 μL with the assay buffer A, which was added to 90 μL of 20 μM fluorescent substrate (Dnp-Pro-Cha-Gly-Cys(Me)-His-Ala-Lys(Nma)-NH2) prepared in the assay buffer B, followed by reaction for 4 hours at 37° C.

Experiment [6] has as its target T6, Human MMP3 (Homo sapiens, UniProt P08254).
T6 construct: purchased Calbiochem 444217
Put plainly: MMP3 inhibition experiment. The following applies: concentration required for 50% inhibition of enzyme activity; read-out: IC50 value MMP-3. An outline of the steps: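 Fluorescence-quenched substrate NFF-3 (MOCAc/Dnp peptide, 20 μM as prepared) cleaved by 5 ng human MMP3 over 5 hours at 37° C, with inhibition measured from substrate fluorescence.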

For experiment [7], the target named is T7, Human MMP2 (Homo sapiens, UniProt P08253).
T7 construct: purchased Calbiochem 444213
T7 sequence (P08253 110-660): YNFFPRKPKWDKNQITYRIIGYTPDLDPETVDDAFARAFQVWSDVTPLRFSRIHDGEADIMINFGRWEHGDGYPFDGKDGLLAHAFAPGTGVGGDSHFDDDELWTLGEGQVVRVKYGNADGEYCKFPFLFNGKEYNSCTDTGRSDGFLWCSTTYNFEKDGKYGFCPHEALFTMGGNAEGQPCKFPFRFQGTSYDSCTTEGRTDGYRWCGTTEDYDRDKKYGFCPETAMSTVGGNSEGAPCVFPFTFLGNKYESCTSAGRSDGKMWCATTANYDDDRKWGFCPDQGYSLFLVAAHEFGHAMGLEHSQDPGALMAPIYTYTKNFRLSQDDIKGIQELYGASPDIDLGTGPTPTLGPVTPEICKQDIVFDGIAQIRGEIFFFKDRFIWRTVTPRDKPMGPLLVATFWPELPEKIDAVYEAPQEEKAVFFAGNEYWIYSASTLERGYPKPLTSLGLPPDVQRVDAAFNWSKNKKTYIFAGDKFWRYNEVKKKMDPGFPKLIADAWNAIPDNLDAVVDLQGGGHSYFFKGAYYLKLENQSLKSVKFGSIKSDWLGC
Put plainly: MMP2 inhibition experiment. The following applies: concentration required for 50% inhibition of enzyme activity; read-out: IC50 value MMP-2.
Method: This enzyme solution in amount of 10 μL was diluted to 90 μL with the assay buffer A, which was added to 90 μL of 20 μM fluorescent substrate (MOCAc((7-methoxycoumarin-4-yl)acetyl)-Pro-Leu-Gly-Leu-A2pr(Dnp)-Ala-Arg-NH2, Peptide Institute, Inc., #3163-v) prepared in the assay buffer B, followed by reaction for 5 hours at 37° C.

Experiment [8] deals with T8, Human MMP9 (Homo sapiens, UniProt P14780).
T8 construct: purchased Calbiochem 444231
T8 sequence (P14780 107-707 limits assumed): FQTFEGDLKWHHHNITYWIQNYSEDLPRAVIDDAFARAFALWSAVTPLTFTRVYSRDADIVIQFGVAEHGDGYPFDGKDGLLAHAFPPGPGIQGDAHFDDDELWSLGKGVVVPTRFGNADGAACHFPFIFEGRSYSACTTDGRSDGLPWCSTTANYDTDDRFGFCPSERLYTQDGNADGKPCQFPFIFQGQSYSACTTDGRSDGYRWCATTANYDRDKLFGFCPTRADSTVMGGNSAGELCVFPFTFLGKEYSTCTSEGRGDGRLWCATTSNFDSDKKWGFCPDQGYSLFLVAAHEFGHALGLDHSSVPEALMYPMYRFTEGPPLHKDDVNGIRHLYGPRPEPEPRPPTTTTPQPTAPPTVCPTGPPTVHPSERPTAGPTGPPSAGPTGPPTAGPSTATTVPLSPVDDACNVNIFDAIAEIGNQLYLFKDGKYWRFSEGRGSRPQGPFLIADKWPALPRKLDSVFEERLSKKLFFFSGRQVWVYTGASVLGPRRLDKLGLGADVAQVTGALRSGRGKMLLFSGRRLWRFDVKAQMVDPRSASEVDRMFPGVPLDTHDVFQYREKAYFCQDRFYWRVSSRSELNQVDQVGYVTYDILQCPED
Put plainly: MMP9 inhibition experiment. Conditions: read-out: IC50 value MMP-9.
Method: This enzyme solution in amount of 1 μL was diluted to 90 μL with the assay buffer A, which was added to 90 μL of 20 μM fluorescent substrate (Dnp-Pro-Cha-Gly-Cys(Me)-His-Ala-Lys(Nma)-NH2) prepared in the assay buffer B, followed by reaction for 4 hours at 37° C.

For experiment [9], the target named is T9, TACE (Homo sapiens, UniProt P78536).
T9 construct: made in house; host or cells: mammalian cells or insect cells
T9 sequence (P78536 215-824): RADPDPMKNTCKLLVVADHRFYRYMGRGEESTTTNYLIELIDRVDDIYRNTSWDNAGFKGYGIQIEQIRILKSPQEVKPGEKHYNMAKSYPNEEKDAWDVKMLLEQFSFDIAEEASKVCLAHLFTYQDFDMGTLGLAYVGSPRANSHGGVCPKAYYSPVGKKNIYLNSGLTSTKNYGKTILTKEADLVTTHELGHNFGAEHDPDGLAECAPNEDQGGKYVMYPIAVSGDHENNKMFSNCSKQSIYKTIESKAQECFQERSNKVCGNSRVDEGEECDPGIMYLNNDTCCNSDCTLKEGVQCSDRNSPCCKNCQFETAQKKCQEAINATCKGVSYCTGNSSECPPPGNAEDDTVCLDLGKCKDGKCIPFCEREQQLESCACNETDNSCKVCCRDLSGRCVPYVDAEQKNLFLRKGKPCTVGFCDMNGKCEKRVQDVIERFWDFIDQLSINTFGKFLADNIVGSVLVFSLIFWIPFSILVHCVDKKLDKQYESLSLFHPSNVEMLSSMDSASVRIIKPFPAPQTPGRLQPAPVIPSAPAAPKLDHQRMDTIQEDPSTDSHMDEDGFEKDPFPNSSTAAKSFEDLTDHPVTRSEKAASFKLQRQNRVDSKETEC
Put plainly: TACE inhibition experiment (in vitro).

The mark [10] stands for this setting: concentration required for 50% inhibition of enzyme activity.

T6 sequence (P08254 100-272 limits assumed): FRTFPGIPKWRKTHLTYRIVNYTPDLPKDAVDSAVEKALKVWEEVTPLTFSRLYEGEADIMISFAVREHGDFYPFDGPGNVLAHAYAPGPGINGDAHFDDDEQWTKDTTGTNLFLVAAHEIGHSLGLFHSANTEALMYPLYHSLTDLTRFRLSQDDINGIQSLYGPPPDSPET

As usually defined, the IC50 is the concentration at which inhibition is half-maximal. With `Cc1cc(COc2ccc(S(=O)(=O)CC(C=C3CCOCC3)N(O)C=O)cc2)c2ccccc2n1` (single isomer, unassigned) [Example I-33, N-hydroxy-N-{2-[4-(2-methylquinolin-4-ylmethoxy)benzenesulfonyl]-1-(tetrahydropyran-4-ylidenemethyl)ethyl}formamide], the IC50 in experiment [1] is 77 µM; in experiment [2], above 100 µM; in experiment [3], 23 µM; in experiment [4] it was 2.2 µM; in [5], 32 µM; in experiment [6], 4.2 µM. The IC50 is 28 µM in [7] and above 100 µM in [8].
On to `Cc1cc(COc2ccc(S(=O)(=O)CC(C=C3CCOCC3)N(O)C=O)cc2)c2ccccc2n1` (single isomer, unassigned) [Example I-34, N-hydroxy-N-{2-[4-(2-methylquinolin-4-ylmethoxy)benzenesulfonyl]-1-(tetrahydropyran-4-ylidenemethyl)ethyl}formamide], for which the IC50 was above 100 µM in [1]; above 100 µM in experiment [2] (setting [10]); above 100 µM in experiment [3]; 40 µM in experiment [4]; above 100 µM in experiment [5]; above 100 µM in experiment [6]. For the same molecule, the IC50 in experiment [7] and in experiment [8] (setting [10]) was above 100 µM in each case.
Regarding `Cc1cc(COc2ccc(S(=O)(=O)CC(C=C3CCOCC3)N(O)C=O)cc2)c2ccccc2n1` (stereo not drawn) [Example I-9, N-Hydroxy-N-{2-[4-(2-methylquinolin-4-ylmethoxy)benzenesulfonyl]-1-(tetrahydropyran-4-ylidenemethyl)ethyl}formamide], the 50% inhibitory concentration (IC50) in experiment [1] was 70 µM; in experiment [2], above 100 µM; in experiment [3], 37.5 µM; in experiment [4] it was 3 µM; in experiment [5], 25 µM; in experiment [6], 5.5 µM. Also, the IC50 in [7] came to 60 µM; in experiment [8] (setting [10]), 53 µM.
For `CC(=C1CCOCC1)C(CS(=O)(=O)c1ccc(OCc2cc(C)nc3ccccc23)cc1)N(O)C=O` (stereo not drawn) [Example I-15], the IC50 in [9] is 5.5 nM; in [1] it was 70 µM; in experiment [2], above 100 µM; in experiment [3], 60 µM; in [4], 3.5 µM; in experiment [5] it was 30 µM. Also, the IC50 in experiment [6] is 9 µM; in [7], 38 µM; in experiment [8], above 100 µM.
As for `Cc1cc(COc2ccc(S(=O)(=O)CC(C=C3CCSCC3)N(O)C=O)cc2)c2ccccc2n1` (stereo not drawn) [Example I-17, N-Hydroxy-N-{2-[4-(2-methylquinolin-4-ylmethoxy)benzenesulfonyl]-1-(tetrahydrothiopyran-4-ylidenemethyl)ethyl}formamide], the concentration for half-maximal inhibition (IC50) in [9] (setting [10]) is 3 nM; in experiment [1], 50 µM; in [2], 43 µM; in experiment [3] it was above 100 µM; in experiment [4], 4 µM; in [5], 25 µM. Further, the IC50 in [6] was 10 µM; in [7], 55 µM; in experiment [8] (setting [10]) it was 31 µM.
As to `Cc1cc(COc2ccc(S(=O)(=O)CC(CC3CCC(=NO)CC3)N(O)C=O)cc2)c2ccccc2n1` (stereo not drawn) [Example I-27], the concentration for half-maximal inhibition (IC50) in experiment [1] came to 30 µM; in experiment [2], 50 µM; in experiment [3] it was 8 µM.
In the case of `O=CN(O)C(C=C1CCC(=O)CC1)CS(=O)(=O)c1ccc(OCc2ccc3ccccc3n2)cc1` (stereo not drawn) [Example I-84], the IC50 in experiment [9] was 550 nM; in experiment [1] it was 90 µM; in experiment [2], above 100 µM; in experiment [3], above 100 µM; in experiment [4], 42 µM; in [5], 28 µM. The half-inhibitory concentration (IC50) is 78 µM in experiment [6] and 6.6 µM in [7].
Turning to `Cc1cc(COc2ccc(S(=O)(=O)CC(CC3CCC(=O)CC3)N(O)C=O)cc2)cc(C)n1` (stereo not drawn) [Example I-113], the IC50 in experiment [9] turned out to be 130 nM; in experiment [1], 60 µM; in experiment [2] it was 60 µM; in experiment [4] it was 6 µM; in experiment [5], 2.3 µM; in [6], 8 µM. In addition, the IC50 in experiment [7] was found to be 2 µM; in experiment [8], 70 µM.
On to `Cc1cc(COc2ccc(S(=O)(=O)CC(C=C3CCC(=O)CC3)N(O)C=O)cc2)cc(C)n1` (stereo not drawn) [Example I-114], for which the IC50 in [9] is 100 nM; in [1], above 100 µM; in experiment [2] it was above 100 µM; in [4] it was 30 µM; in [5] it was 10 µM; in [6] it was 23 µM. For the same molecule, the IC50 in [7] was 7 µM; in [8] it was above 100 µM.
For the molecule `Cc1cc(COc2ccc(S(=O)(=O)CC(C=C3CCSCC3)N(O)C(N)=O)cc2)c2ccccc2n1` (stereo not drawn) [Example I-125, 1-hydroxy-1-{2-[4-(2-methylquinolin-4-ylmethoxy)benzenesulfonyl]-1-(tetrahydrothiopyran-4-ylidenemethyl)ethyl}urea], the IC50 was 630 nM in experiment [9]; above 100 µM in experiment [1]; above 100 µM in [2]; above 100 µM in [4]; above 100 µM in [5]; above 100 µM in experiment [6]. In addition, the half-inhibitory concentration (IC50) in [7] and in [8] was above 100 µM in each case.
Regarding `CC(=O)N(O)C(C=C1CCSCC1)CS(=O)(=O)c1ccc(OCc2cc(C)nc3ccccc23)cc1` (stereo not drawn) [Example I-126, N-hydroxy-N-{2-[4-(2-methylquinolin-4-ylmethoxy)benzenesulfonyl]-1-(tetrahydrothipyran-4-ylidenemethyl)ethyl}acetamide], the IC50 in [9] was 310 nM; in experiment [1] it was above 100 µM; in experiment [2], above 100 µM; in experiment [4] it was 6.3 µM; in experiment [5] it was 70 µM; in experiment [6], 12 µM. The IC50 in experiment [7] and in experiment [8] was above 100 µM in each case.
As to `CC(=O)N1CCCC(C(CS(=O)(=O)c2ccc(OCc3cc(C)nc4ccccc34)cc2)N(O)C=O)C1` (stereo not drawn) [Example I-133], the concentration for half-maximal inhibition (IC50) in experiment [9] was 26 nM; in experiment [2], above 100 µM; in experiment [3] it was 18 µM; in experiment [4] it was 0.9 µM; in [5], 25 µM; in [6] it was 1.7 µM. For the same molecule, the IC50 in experiment [7] was 28 µM; in [8], above 100 µM.
